Measured values from paper PMC8841528, “Structural Basis for Unusual TCR CDR3β Usage Against an Immunodominant HIV-1 Gag Protein Peptide Restricted to an HLA-B*81:01 Molecule” (Frontiers in Immunology, 2022).

System: T18A TCR
Assay: Surface plasmon resonance (SPR) binding of T18A TCR to peptide/HLA-B*81:01 complexes
Conditions: result in words
Procedure: The SPR assays were performed as described earlier ([40]–[42]). Briefly, the protein was buffer -exchanged into PBS and biotinylated for 1h at room temperature. […] The Kd was determined by the fitting of a single-ligand binding model.

For “TPQDLNsML [TL9 escape variant, Ser at position 7, presented by HLA-B*81:01]”, the “recognition of TL9 escape variant presented by HLA-B*81:01 by T18A TCR” value was “could recognize”.

In the case of “TPsDLNTML [TL9 escape variant, Ser at position 3, presented by HLA-B*81:01]”, the “recognition of TL9 escape variant presented by HLA-B*81:01 by T18A TCR” value was “could recognize”.
